Test results taken from patent US9072293B2, “Cyclopropenes and method for applying cyclopropenes to agricultural products or crops” (Erum Biotechnologies Inc., priority 2010, dated 2015).
“And” between values parts separate entries of the source, which are not always exact repeats. Equal entries are not always repeated.

How the values were obtained:
[1] = Relative chemical stability of cyclopropenes measured by 1H-NMR; type: physicochemical
Method in brief: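 Compounds in CDCl3 NMR tubes stored at −20° C. or room temperature and followed by 1H-NMR. Integrals of characteristic 1-alkylcyclopropene peaks (4–6.5 ppm, 1H; 0.8–0.9 ppm, 2H) compared against 1,1,3,3-tetramethylurea internal standard (2.80 ppm); stability expressed relative to chain-length-1 analogue.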

tomato [2] = test: Experimental Example 2: Efficacy test on tomato using oil based formulation (reddening grade); type: in vivo; settings: 1.0 mM oil-based formulation, individual tomatoes n=4
Method in brief: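 Tomatoes (n=4 per group) sprayed to surface saturation with 1.0 mM oil-based (xylene/hexane) cyclopropene formulations, versus untreated and solvent controls. Kept 3 days at 25–30 °C; ripening scored 0–5 by area of red coloration.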

tomato [3] = test: Experimental Example 1: Efficacy test on tomato using emulsion (reddening grade); type: in vivo; settings: individual tomatoes n=4
[4] = 1,000 ppm (v/v) or less concentration, room temperature; cited from earlier work

Row | chemical stability (in words) [1] | Stability (relative chemical stability, based on cyclopropenes having a chain length of 1) ([1]; 1H-NMR, CDCl3, stored at −20° C. or room temperature, relative to chain length 1) | Structure (SMILES) | Tomato results: reddening level (grade 0 to 5) (tomato [2]; Day 0, room temperature (25-30° C.)) | Tomato results: reddening level (grade 0 to 5) (tomato [2]; Day 1, room temperature (25-30° C.)) | Tomato results: reddening level (grade 0 to 5) (tomato [2]; Day 2, room temperature (25-30° C.)) | Tomato results: reddening level (grade 0 to 5) (tomato [2]; Day 3, room temperature (25-30° C.)) | reddening level (grade 0 to 5) (tomato [3]; 100 μM, Day 0, room temperature (25-30° C.)) | reddening level (grade 0 to 5) (tomato [3]; 100 μM, Day 1, room temperature (25-30° C.)) | reddening level (grade 0 to 5) (tomato [3]; 100 μM, Day 2, room temperature (25-30° C.)) | reddening level (grade 0 to 5) (tomato [3]; 100 μM, Day 3, room temperature (25-30° C.)) | reddening level (grade 0 to 5) (tomato [3]; 1.0 mM, Day 0, room temperature (25-30° C.)) | reddening level (grade 0 to 5) (tomato [3]; 1.0 mM, Day 1, room temperature (25-30° C.)) | reddening level (grade 0 to 5) (tomato [3]; 1.0 mM, Day 2, room temperature (25-30° C.)) | reddening level (grade 0 to 5) (tomato [3]; 1.0 mM, Day 3, room temperature (25-30° C.)) | half life [4]
1 | much more stable | >>10 | C1=C(CCCCCc2ccccc2)C1 [(5-Phenylpentyl), 1-(5-phenylpentyl)cyclopropene] | 0 (an area in which the surface of tomato was colored in pink was 10% or less) (2×) and 1 (an area in which the surface of tomato was completely colored in red was 10 to 40%) and 2 (an area in which the surface of tomato was completely colored in red was 40 to 70%) | 0 (an area in which the surface of tomato was colored in pink was 10% or less) (2×) and 1 (an area in which the surface of tomato was completely colored in red was 10 to 40%) and 2 (an area in which the surface of tomato was completely colored in red was 40 to 70%) | 0 (an area in which the surface of tomato was colored in pink was 10% or less) and 1 (an area in which the surface of tomato was completely colored in red was 10 to 40%) and 2 (an area in which the surface of tomato was completely colored in red was 40 to 70%) and 3 (an area in which the surface of tomato was completely colored in red was 70% or more and the bottom area remained green) | 1 (an area in which the surface of tomato was completely colored in red was 10 to 40%) (2×) and 3 (an area in which the surface of tomato was completely colored in red was 70% or more and the bottom area remained green) and 4 | 0 (an area in which the surface of tomato was colored in pink was 10% or less) (2×) and 1 (an area in which the surface of tomato was completely colored in red was 10 to 40%) and 2 (an area in which the surface of tomato was completely colored in red was 40 to 70%) | 0 (an area in which the surface of tomato was colored in pink was 10% or less) (2×) and 2 (an area in which the surface of tomato was completely colored in red was 40 to 70%) (2×) | 0 (an area in which the surface of tomato was colored in pink was 10% or less) and 1 (an area in which the surface of tomato was completely colored in red was 10 to 40%) and 3 (an area in which the surface of tomato was completely colored in red was 70% or more and the bottom area remained green) (2×) | 1 (an area in which the surface of tomato was completely colored in red was 10 to 40%) and 2 (an area in which the surface of tomato was completely colored in red was 40 to 70%) and 3 (an area in which the surface of tomato was completely colored in red was 70% or more and the bottom area remained green) and 4 | 0 (an area in which the surface of tomato was colored in pink was 10% or less) (2×) and 1 (an area in which the surface of tomato was completely colored in red was 10 to 40%) and 2 (an area in which the surface of tomato was completely colored in red was 40 to 70%) | 0 (an area in which the surface of tomato was colored in pink was 10% or less) (2×) and 1 (an area in which the surface of tomato was completely colored in red was 10 to 40%) and 2 (an area in which the surface of tomato was completely colored in red was 40 to 70%) | 0 (an area in which the surface of tomato was colored in pink was 10% or less) (2×) and 1 (an area in which the surface of tomato was completely colored in red was 10 to 40%) and 2 (an area in which the surface of tomato was completely colored in red was 40 to 70%) | 0 (an area in which the surface of tomato was colored in pink was 10% or less) and 1 (an area in which the surface of tomato was completely colored in red was 10 to 40%) and 2 (an area in which the surface of tomato was completely colored in red was 40 to 70%) and 3 (an area in which the surface of tomato was completely colored in red was 70% or more and the bottom area remained green) | 
2 |  |  | CC1=CC1 [1-methylcyclopropene] |  |  |  |  |  |  |  |  |  |  |  |  | ≥ 240 h
